Legend:
[1] = tested on: Non-transformed rat intestinal epithelial cells; assay: Effect of PDTC on cell proliferation (IC50); format: cell-based; conditions: Normal cells, read-out: IC50 required to inhibit cellular proliferation or induce apoptosis
Method: (§1) The effect of PDTC on cellular proliferation or apoptosis was evaluated in a number of normal and cancer cell lines. The IC50 was measured as the concentration of PDTC that inhibited cellular proliferation.

AsPo1 = assay: Effect of PDTC on cell proliferation (IC50); format: cell-based; conditions: Pancreatic carcinoma cells, read-out: IC50 required to inhibit cellular proliferation or induce apoptosis
Method: as §1

MDA MB-468 = assay: Effect of PDTC on cell proliferation (IC50); format: cell-based; conditions: Homo sapiens, Breast carcinoma cells, read-out: IC50 required to inhibit cellular proliferation or induce apoptosis
Method: as §1

MCF-10HRas = assay: Effect of PDTC on cell proliferation (IC50); format: cell-based; conditions: Breast carcinoma cell, Breast carcinoma cells, read-out: IC50 required to inhibit cellular proliferation or induce apoptosis
Method: as §1

PANC-1 = assay: Effect of PDTC on cell proliferation (IC50); format: cell-based; conditions: Homo sapiens, Pancreatic carcinoma cells, read-out: IC50 required to inhibit cellular proliferation or induce apoptosis
Method: as §1

MDA-MB231 = assay: Effect of PDTC on cell proliferation (IC50); format: cell-based; conditions: Homo sapiens, MDA-MB-231, Breast carcinoma cells, read-out: IC50 required to inhibit cellular proliferation or induce apoptosis
Method: as §1

Keratinocytes = assay: Effect of PDTC on cell proliferation (IC50); format: cell-based; conditions: Homo sapiens, Keratinocyte, Normal cells, read-out: IC50 required to inhibit cellular proliferation or induce apoptosis
Method: as §1

MCF-10WT = assay: Effect of PDTC on cell proliferation (IC50); format: cell-based; conditions: Breast carcinoma cell, Breast carcinoma cells, read-out: IC50 required to inhibit cellular proliferation or induce apoptosis
Method: as §1

[2] = tested on: Primary mammary epithelia; assay: Effect of PDTC on cell proliferation (IC50); format: cell-based; conditions: Homo sapiens, Normal cells, read-out: IC50 required to inhibit cellular proliferation or induce apoptosis
Method: as §1

BxPc3 = assay: Effect of PDTC on cell proliferation (IC50); format: cell-based; conditions: Homo sapiens, BXPC-3, Pancreatic carcinoma cells, read-out: IC50 required to inhibit cellular proliferation or induce apoptosis
Method: as §1

Primary colonocytes [3] = assay: Effect of PDTC on cell proliferation (IC50); format: cell-based; conditions: Homo sapiens, Normal cells, read-out: IC50 required to inhibit cellular proliferation or induce apoptosis
Method: as §1

N-87 = assay: Effect of PDTC on cell proliferation (IC50); format: cell-based; conditions: Gastric carcinoma cells, read-out: IC50 required to inhibit cellular proliferation or induce apoptosis
Method: as §1

Saos-2 = assay: Effect of PDTC on cell proliferation (IC50); format: cell-based; conditions: Homo sapiens, Osteosarcoma, read-out: IC50 required to inhibit cellular proliferation or induce apoptosis
Method: as §1

MCF-7 = assay: Effect of PDTC on cell proliferation (IC50); format: cell-based; conditions: Homo sapiens, MCF7, Breast carcinoma cells, read-out: IC50 required to inhibit cellular proliferation or induce apoptosis
Method: as §1

Hs746T = assay: Effect of PDTC on cell proliferation (IC50); format: cell-based; conditions: Homo sapiens, Gastric carcinoma cells, read-out: IC50 required to inhibit cellular proliferation or induce apoptosis
Method: as §1

DLD-1 = assay: DNA fragmentation after PDTC treatment; format: cell-based; conditions: 70 μM
Mutant p53 HCT 15 = assay: DNA fragmentation after PDTC treatment; format: cell-based, human; conditions: 70 μM
Wild Type p53 HCA-7 = assay: DNA fragmentation after PDTC treatment; format: cell-based; conditions: 70 μM
HCT 116 cells = assay: Soft-agar colony formation (anchorage-independent growth); conditions: Homo sapiens, HCT-116, 240 h, read-out: approximate IC50 in soft agar
Method: (§2) FIG. 1A is a graph of the concentration of PDTC versus soft-agar forming units×10^6 HCT 15 and HCT 116 cells (as a percent of control). […] Soft-agar colony formation was measured by seeding HCT 116 or HCT 15 cells in soft agar supplemented with either medium alone (control), or increasing concentrations of pyrrolidinedithiocarbamate (25–200 μM) or vitamin E (0.1–10 mM). Colonies were scored at the end of 10 days incubation at 37° C. Values are representative of three experiments carried out in quadruplicate.
(§3) HCT 116 and HCT 15 cells were seeded in soft agar as described above containing increasing concentrations of either 5-FU (5×10^−8 to 5×10^−5 M) or doxorubicin (1×10^−9 to 1×10^−6 M), in the presence or absence of pyrrolidinedithiocarbamate (70 μM) or vitamin E (3 mM). Colonies were scored after 10 days and IC50 values were calculated as the concentration of 5-FU or doxorubicin required to reduce basal colony formation by 50% (±s.e.m.). Values are representative of three experiments carried out in quadruplicate.

HCT 15 cells = assay: as above; conditions: Homo sapiens, HCT-15, 240 h, read-out: approximate IC50 in soft agar
Method: as §2, §3

HCT 116 = assay: DNA fragmentation after PDTC treatment; format: cell-based, human; conditions: 70 μM
Primary colonocytes [4] = assay: DNA fragmentation after PDTC treatment; format: cell-based, human; conditions: 70 μM
[5] = tested on: murine small intestine and the murine colon; conditions: mouse, in vivo
DKO-3 = assay: DNA fragmentation after PDTC treatment; format: cell-based; conditions: 70 μM
HCT 15-derived tumors = assay: HCT 15 tumor xenografts in athymic mice; format: in vivo; conditions: HCT 15-derived tumors, after 3 weeks of single agent treatment, before cross-over
Method: HCT 15-derived tumors were generated as described above. Animals were then treated with pyrrolidinedithiocarbamate, in the presence or absence of 5-FU, for 3 weeks. At this point, treatments were discontinued in animals receiving the combined treatment of pyrrolidinedithiocarbamate and 5-FU for 2 months. All other treatment groups received both 5-FU and pyrrolidinedithiocarbamate for the remaining 3 weeks.
Male athymic Balb/c nu/nu mice were obtained from the Harlan Sprague-Dawley Company at 4–6 weeks of age and were quarantined for at least 2 weeks before the study. […] HCT 116 and HCT 15 CRC cell lines were grown in DMEM supplemented with 10% FBS as described above. Cells were harvested through two consecutive trypsinizations, centrifuged at 300 g for 5 minutes, washed twice, and resuspended in sterile phosphate buffered saline. One ×10^6 cells in 0.2 ml were injected subcutaneously between the scapula of 7- to 10-week-old male nude mice.
Tumor volumes were estimated weekly by measuring the maximal length, width, and height. Once tumors reached a mean size of 120 to 150 mm^3, animals received either weekly i.p. injections of pyrrolidinedithiocarbamate (70 μM) or vitamin E (3 mM), 5-FU (40 mg/kg) or saline, or a combination of pyrrolidinedithiocarbamate or vitamin E and 5-FU or 6 weeks. In cross-over experiments, animals received the above treatments for three weeks (with the exception of vitamin E), and then were crossed-over to either the combination treatment of pyrrolidinedithiocarbamate and 5-FU (saline, pyrrolidinedithiocarbamate or 5-FU alone) or discontinued treatment pyrrolidinedithiocarbamate and 5-FU) for the remaining three weeks of the experiment. […] Tumor volumes were recorded weekly until termination of the study.
Tumor tissues were fixed overnight in 4% (v/v) paraformaldehyde and embedded in paraffin according to standard histological procedures. […] The proliferative index (BrDU) and the apoptotic index (TUNEL) were estimated by the percentage of cells scored under a microscope at 200-fold magnification.

## S=C(S)N1CCCC1 [PDTC, pyrrolidinedithiocarbamate]
[1]
  IC50: 450 µM
AsPo1
  IC50: 70 µM
MDA MB-468
  IC50: 20 µM
MCF-10HRas
  IC50: 5 µM
PANC-1
  IC50: 75 µM
MDA-MB231
  IC50: 10 µM
Keratinocytes
  IC50: 600 µM
MCF-10WT
  IC50: 5 µM
[2]
  IC50: 650 µM
BxPc3
  IC50: 100 µM
Primary colonocytes [3]
  IC50: 500 µM
N-87
  IC50: 40 µM
Saos-2
  IC50: 10 µM
MCF-7
  IC50: 13 µM
Hs746T
  IC50: 35 µM
DLD-1; 3 h
  DNA Fragmentation after PDTC Treatment: 213 ± 17 % Control
DLD-1; 6 h
  DNA Fragmentation after PDTC Treatment: 296 ± 21 % Control
DLD-1; 12 h
  DNA Fragmentation after PDTC Treatment: 712 ± 34 % Control
DLD-1; 24 h
  DNA Fragmentation after PDTC Treatment: 876 ± 46 % Control
Mutant p53 HCT 15; 3 h
  DNA Fragmentation after PDTC Treatment: 145 ± 12 % Control
Mutant p53 HCT 15; 6 h
  DNA Fragmentation after PDTC Treatment: 259 ± 18 % Control
Mutant p53 HCT 15; 12 h
  DNA Fragmentation after PDTC Treatment: 673 ± 34 % Control
Mutant p53 HCT 15; 24 h
  DNA Fragmentation after PDTC Treatment: 979 ± 34 % Control
Wild Type p53 HCA-7; 3 h
  DNA Fragmentation after PDTC Treatment: 111 ± 13 % Control
Wild Type p53 HCA-7; 6 h
  DNA Fragmentation after PDTC Treatment: 126 ± 17 % Control
Wild Type p53 HCA-7; 12 h
  DNA Fragmentation after PDTC Treatment: 154 ± 19 % Control
Wild Type p53 HCA-7; 24 h
  DNA Fragmentation after PDTC Treatment: 302 ± 35 % Control
HCT 116 cells
  IC50: ~70 µM
HCT 15 cells
  IC50: ~70 µM
HCT 116; 3 h
  DNA Fragmentation after PDTC Treatment: 108 ± 11 % Control
HCT 116; 6 h
  DNA Fragmentation after PDTC Treatment: 131 ± 21 % Control
HCT 116; 12 h
  DNA Fragmentation after PDTC Treatment: 198 ± 23 % Control
HCT 116; 24 h
  DNA Fragmentation after PDTC Treatment: 367 ± 49 % Control
Primary colonocytes [4]; 3 h
  DNA Fragmentation after PDTC Treatment: 101 ± 10 % Control
Primary colonocytes [4]; 6 h
  DNA Fragmentation after PDTC Treatment: 109 ± 9 % Control
Primary colonocytes [4]; 12 h
  DNA Fragmentation after PDTC Treatment: 107 ± 10 % Control
Primary colonocytes [4]; 24 h
  DNA Fragmentation after PDTC Treatment: 130 ± 16 % Control
[5]
  toxicity of 5-FU: substantially reduces the toxicity of 5-FU
DKO-3; 3 h
  DNA Fragmentation after PDTC Treatment: 223 ± 11 % Control
DKO-3; 6 h
  DNA Fragmentation after PDTC Treatment: 478 ± 16 % Control
DKO-3; 12 h
  DNA Fragmentation after PDTC Treatment: 896 ± 23 % Control
DKO-3; 24 h
  DNA Fragmentation after PDTC Treatment: 1116 ± 54 % Control
HCT 15-derived tumors
  tumor size: 1325+210 mm^3

Source: patent US7071158B2, “Antioxidant enhancement of therapy for hyperproliferative conditions” (Atherogenics, Inc., priority 1997, dated 2006)
